In patent publication US20110081428A1, “Use of thioflavin-like compounds to increase life span and/or health span” (priority 2009, published 2011):

Experiments:
Assay type in all cases: in vivo, Caenorhabditis elegans
wildtype (N2) worms = assay: Pharyngeal pumping rate; conditions: 50 μM ThT
Procedure: FIG. 11A-B. ThT produces small changes in pharyngeal pumping in N2 worms and increases lifespan on a dietary restriction model. a) Pharyngeal pumping rates of wildtype animals raised on 50 μM ThT measured at 3 (left panel) and 6 days of treatment (right panel). Pumping rates of 15 individuals were scored and the averages of three independent experiments are shown (*p<0.01). b) 1 and 10 μM ThT increase lifespan of N2 worms raised on 1×10^9 cfu/ml at 20° C. as compared to untreated worms (left panel). Percent gain in median survival of N2 populations cultured on 0-50 μM ThT (right panel). Bars are representative of 2 to 4 independent experiments per duplicate.

[1] = test system: CL4176 (Aβ3-42 expressed in muscle); assay: Worm paralysis assay, Aβ model
Procedure: (§5) Scoring for paralysis was initiated 2 and 8 days after temperature upshift for CL4176 and AM140, respectively. […] For sensitivity to EtOH or levamisole resistance, CW152 gas-1 (fc21) X and ZZ26 unc-63(x26)I worms were picked into 0.4 M EtOH or 50 μM levamisole, respectively, equilibrated for 5 min, and scored for paralysis as described above. Treated and untreated worms were compared with an unpaired t-test (implemented in Prism 4, Graphpad™ Software, Inc., San Diego, Calif., USA).

HSF-1 = assay: Western blot HSF-1; conditions: ThT treatment
Procedure: (§1) Peptide corresponding to amino acids 110-145 ([…]; SEQ ID NO:1) of HSP-16.2 was used to commercially synthesize antiserum (Invitrogen). Briefly, KLH-peptide was emulsified by mixing with an equal volume of Freund's adjuvant and injected into three subcutaneous dorsal sites for a total of 0.1 mg of peptide for immunization. The animals (rabbits) were bled, the blood allowed to clot and the serum collected by centrifugation. Monoclonal HSP-70 and Polyclonal HSF-1 primary antibodies were from stressgen (N27F3-4 and SPA-901, respectively).
(§2) Worms were transferred to siliconized eppendorf tubes, washed once in S-basal and frozen in liquid N2. Standard SDS-PAGE was performed using (4-12%) NOVEX gels and IVIES running buffer. Following transfer PVDF (BioRad) membranes were incubated with antisera (1:10000) or primary antibodies (1:1000) diluted in blocking buffer and then with secondary, goat anti-rabbit IgG antibody/horseradish peroxidase conjugate (Pierce), diluted 1:25000. Detection was undertaken with chemiluminescent reagents (SuperSignal, Pierce) and standard autoradiography.

HSP-16.2 = assay: Western blot HSP-16.2; conditions: 50 μM ThT, 100 μM curcumin, 4 and 7 days of treatment
Procedure: as §1, §2

[2] = test system: AM140 (rmIs132[P(unc-54) Q35::YFP]); assay: Worm paralysis assay, polyQ model; conditions: AM140, 25° C., 8 days; 50 μM ThT, 100 μM curcumin
Procedure: as §5

unc-52 RNA = assay: Real time quantitative PCR, unc-52; conditions: 50 μM ThT, 12 days of treatment
Procedure: Twelve single adults from control or 50 μM ThT populations were picked after 3, 6 and 12 days of treatment into 5 μl of distilled water and flash frozen until extraction. Individual worms were extracted using the RNeasy Micro Kit, TissueLyser and QIAcube (Qiagen). Using the manufacturer's standard Animal Tissue protocol, each sample was homogenized in buffer RLT/Bme (Qiagen) on the TissueLyser (6 min total at 20 Hz). Samples, reagents and columns were then loaded into the QIAcube robot, and processed using the “RNeasy Micro—Animal tissues and cells—DNase digest” program. Each sample was then eluted in 14 μl of Nuclease-free water. cDNA templates for the Real Time PCR reactions were made using a combination of Message Sensor RT kit (Ambion's) and TaqMan PreAmp Master Mix (Applied Biosystems). The entire worm sample was added to the RT reaction and reversed transcribed at 50° C. for 20 min, using Message Sensor's “Two Step RT-PCR Protocol” (sample RT's were randomized). Then 2.5 μl of the cDNA sample was pre-amplified with a “4×Multiplex Primer Mix” for 14 cycles using TaqMan PreAmp master mix and protocol (ABI). Two modifications were made to ABI's protocol: 1. the reaction volume was reduced to 10 μl and 2. after pre-amplification, each cDNA sample was diluted 1:5 with 1XTE Buffer (Promega). cDNA samples were stored at −20° C. until needed. […]

CF1038 [daf-16(mu86)I] = assay: Lifespan assay, daf-16 mutant; conditions: 50 μM ThT, 100 μM curcumin
Procedure: (§3) Lifespan assays were performed as described previously. (McColl, G. et al. Pharmacogenetic analysis of lithium-induced delayed aging in Caenorhabditis elegans. J Biol Chem 283, 350-357 (2008). Briefly, the nematode growth media (NGM) plates were prepared under sterile conditions. 100 μL of concentrated stocks of each of the compounds used in this study were added onto a previously prepared NGM small plate (3 mL volume) immediately spread over the surface of the plate. The final concentrations quoted in the text assume an even distribution of compound throughout the 3 ml plate. The plates were then placed in a laminar flow hood at room temperature for 30 min and then 60 μL of a concentrated suspension of E. coli OP50 was spotted to form a circular lawn on the center of each plate. Thirty late L4 larvae growing at 20° C. were transferred to fresh NGM plates with FUdR (75 μM) in presence or absence of the specified compounds and incubated at 20° C. The first day of adulthood is Day 3 in survival curves. There was between-experiment variation in the magnitude of the lifespan extension observed with ThT which appeared to correlate with different suppliers and batches. ThT concentration should be optimized depending on batch and purity and stability of the compound. […]
(§4) Animals were scored as alive, dead or lost every other day. […]

TJ1052 [age-1(hx546)II] = assay: Lifespan assay, age-1 mutant; conditions: 50 μM ThT, 25° C.
Procedure: as §3, §4

## Cc1ccc2c(c1)sc(-c1ccc(N(C)C)cc1)[n+]2C.[Cl-] [ThT, 4-(3,6-dimethyl-1,3-benzothiazol-3-ium-2-yl)-N,N-dimethylaniline chloride]
Wildtype (N2) worms; after 3 days of treatment
  decrease in pharyngeal pumping rate: ~15%
Wildtype (N2) worms; after 6 days of treatment
  pharyngeal pumping rate: No difference was detected
[1]; CL4176, 50 μM ThT added 18 h after induction of aggregate formation
  paralysis when treated after aggregation induction: rescued the Aβ3-42 aggregation-induced paralysis
[1]; CL4176, 25° C., 50 μM ThT, 100 μM curcumin
  proportion of paralyzed worms: significantly decrease the proportion of paralyzed worms
HSF-1
  HSF-1 protein levels: slight increase
HSP-16.2
  HSP-16.2 protein levels: up-regulated
[2]
  proportion of paralyzed worms: significantly decrease the proportion of paralyzed worms
unc-52 RNA
  unc-52 RNA levels: decreases the levels of unc-52
CF1038 [daf-16(mu86)I]
  lifespan of daf-16(mu86) mutant: extended the lifespan
TJ1052 [age-1(hx546)II]
  lifespan of age-1(hx546) mutant: extended the lifespan
